# Source: publication PMC7110780, “Multimodular fused acetyl–feruloyl esterases from soil and gut Bacteroidetes improve xylanase depolymerization of recalcitrant biomass” (Biotechnology for Biofuels, 2020)
# Biological target: T1, BoCE6–CE1 (Bacteroides ovatus, UniProt A0ABU3ING8)
# T1 construct: gene RO706_05995
# Assay: absorbance […] nm
# Assay type: biochemical
# Conditions: […] °C, […] buffer
# T1 sequence (A0ABU3ING8 20-638): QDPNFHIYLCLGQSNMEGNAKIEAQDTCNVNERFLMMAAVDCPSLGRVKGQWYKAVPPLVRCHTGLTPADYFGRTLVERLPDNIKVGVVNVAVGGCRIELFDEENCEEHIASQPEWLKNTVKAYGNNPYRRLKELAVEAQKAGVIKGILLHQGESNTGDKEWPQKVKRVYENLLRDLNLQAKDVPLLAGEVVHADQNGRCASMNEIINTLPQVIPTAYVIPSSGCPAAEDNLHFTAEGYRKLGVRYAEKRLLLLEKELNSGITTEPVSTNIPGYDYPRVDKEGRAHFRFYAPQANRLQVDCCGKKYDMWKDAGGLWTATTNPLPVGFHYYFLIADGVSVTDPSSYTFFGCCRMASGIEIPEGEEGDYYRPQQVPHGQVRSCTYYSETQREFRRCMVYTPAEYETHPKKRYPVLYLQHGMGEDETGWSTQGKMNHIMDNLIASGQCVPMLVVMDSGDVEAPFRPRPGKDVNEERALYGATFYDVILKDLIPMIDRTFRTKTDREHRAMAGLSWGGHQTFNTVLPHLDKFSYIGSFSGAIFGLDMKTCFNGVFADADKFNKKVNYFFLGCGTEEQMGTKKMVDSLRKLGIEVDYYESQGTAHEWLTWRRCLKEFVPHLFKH
row,SMILES,absorbance 340 nm
1,COC(=O)/C=C/c1cc(OC)c(O)c(OC)c1 [MSA],The activity on MFA and MSA was in the same order of magnitude for the full-length
2,COC(=O)/C=C/c1ccc(O)c(OC)c1 [MFA],The activity on MFA and MSA was in the same order of magnitude for the full-length
